These results are taken from patent US9034862B2, “Compositions and methods for the treatment of cancer” (priority 2011, dated 2015).

Like-named read-outs stand apart in the source and are kept apart here.

The test system of one assay is human bone sarcoma U2OS. Description: MTT assay, U2OS. Format: cell-based. The method, then: (§1) Human colon carcinoma HT29, human breast carcinoma MCF7, human bone sarcoma U2OS, human prostate carcinoma PC3, and human cervix carcinoma HeLa cells were obtained from the ATCC. A2780/CP70 cisplatin-resistant human ovarian cancer cells were kindly provided by Dr. Stephen B. Howell (Moores UCSD Cancer Center) and the human lung carcinoma cell lines A549 and normal lung fibroblast MRC5 by David E. Root (Whitehead Institute for Biomedical Research). Cells were incubated at 37° C. in 5% CO2 and grown in RPMI (HT29, A2780/CP70, and PC3) or DMEM (A549, MRC5, HeLa, MCF7, and U2OS) medium supplemented with 10% fetal bovine serum and 1% penicillin/streptomycin. Cells were passed every 3 to 4 days and restarted from a frozen stock upon reaching pass number 20.
(§2) Solutions of the platinum compounds were freshly prepared in sterile PBS before use and their concentrations quantitated by atomic absorption spectroscopy. […] The cells were then treated with 20 μL of 3-(4,5-dimethylthiazol-2-yl)-2,5-diphenyltetrazolium bromide (MTT) (5 mg/mL in PBS) and incubated for 4 h. The medium was removed, 100 μL of DMSO was added to the cells, and the absorbance of the purple formazan was recorded at 560 nm using a BioTek Synergy HT multi-detection microplate plate reader. Each condition was performed in triplicate and three independent experiments were carried out for each cell line.
A general note: Tetrazolium dyes change colour on reduction, which living cells bring about.

The subject of a further assay is NTera2. Description: MTT assay, NTera2. To be noted: Table 3, NTera2 Testis, 72-h incubation. Format: cell-based, human.
Assay [1] concerns human prostate carcinoma PC3. Put plainly: MTT assay, PC3. The class given is cell-based.
Method: (§3) Solutions of the platinum compounds were freshly prepared in sterile PBS before use and their concentrations quantitated by atomic absorption spectroscopy. Cells were seeded on a 96-well plate (1200 cells per well for cancer cells and 1800 cells per well for the normal lung fibroblasts) in 100 μL RPMI or DMEM media, and incubated for 24 h. […] The cells were then treated with 20 μL of 3-(4,5-dimethylthiazol-2-yl)-2,5-diphenyltetrazolium bromide (MTT) (5 mg/mL in PBS) and incubated for 4 h. The medium was removed, 100 μL of DMSO was added to the cells, and the absorbance of the purple formazan was recorded at 560 nm using a BioTek Synergy HT multi-detection microplate plate reader. Each condition was performed in triplicate and three independent experiments were carried out for each cell line.
Human prostate carcinoma (PC3) and human cervix carcinoma (HeLa) cells were obtained from the ATCC. The human lung carcinoma cell line A549 was kindly provided by David E. Root (Whitehead Institute for Biomedical Research). Cells were incubated at 37° C. in 5% CO2 and grown in RPMI (PC3) or DMEM (A549 and HeLa) medium supplemented with 10% fetal bovine serum and 1% penicillin/streptomycin. Cells were passaged every 3 to 4 days and restarted from the frozen stock upon reaching passage number 20.
Solutions of the platinum agents were freshly prepared in sterile PBS before use and the platinum content was quantitated by AAS. Cells were seeded on 96 well plates (1200 cells per well) in 100 μL RPMI or DMEM media\ and incubated for 24 hours. […] The cells were then treated with 20 μL of 3-(4,5-dimethylthiazol-2-yl)-2,5-diphenyltetrazolium bromide (MTT) (5 mg/mL in PBS) and incubated for 4 h. The medium was removed, 100 μL of DMSO were added to the cells, and the absorbance of the purple formazan was recorded at 570 nm using a BioTek Synergy HT multi-detection microplate plate reader. For each cell line, three independent experiments were carried out in triplicate.
Assay [2] relates to normal lung fibroblast MRC5. Put plainly: MTT assay, MRC5. The class given is cell-based, human. The method, then:
as §1, §2

Another assay deals with pGLuc plasmid. Description: Platination of pGLuc plasmid. The class given is biochemical.
In assay [3] the test system is Gaussia luciferase expression in human cancer cells. To be noted: for Transcription (normalized against unplatinated control): NoPt = 100, cell line not stated. As for the experimental part:
Vector Construction and Preparation. […] Preparation of Platinated Insertion Strand. […] The suspension was centrifuged. To a solution of 0.2 mM 16-mer oligonucleotide 5′-[…]*[…] The reaction mixture was incubated in the dark at 37° C. overnight. The reaction was stopped when the solution was frozen. […] After purification, the platinated DNA solution was dialyzed against H2O and lyophilized. […] The insertion strand was further analyzed for nucleotide composition by nuclease S1 digestion to confirm the platination site following a protocol published previously (Table 13) (e.g., see J Am Chem Soc 2007, 129, 6370-6371). The platinated and unplatinated DNA strands (40 μM) were phosphorylated by T4 PNK (0.67 U/μL) at 37° C. for 3 h, followed by a phenol/chloroform/isoamyl alcohol extraction to remove the enzyme. The phosphorylated DNA strands were ethanol precipitated and stored in −80° C. at a concentration of 100 pmol/μL.
Briefly, a 600 μg quantity of pGLuc8temG plasmid was digested with 30 U Nt.BbvCI at 37° C. for 1 h. The reaction mixture was heated at 80° C. for 20 min to deactivate the enzyme, followed by a phenol/chloroform/isoamyl alcohol extraction to remove the enzyme. The mixture was dialyzed against H2O overnight at 4° C. The plasmid was further digested with 30 U Nt.BspQI at 50° C. for 1 h, and the enzyme was heat-deactivated and removed by a phenol/chloroform/isoamyl alcohol extraction. The nicked plasmid was mixed with 1,000 equiv of complementary DNA strand 5′-[…] (SEQ ID NO: 2) in a buffer of 10 mM Tris-HCl, 2 mM MgCl2, 0.4 M NaCl, pH 7.4, heated at 80° C. for 5 min, and subsequently cooled at 4° C. for 5 min for 10 cycles. […] A 120 μg quantity of the gapped plasmid was annealed with 100 equiv of the insertion strand in a buffer of 10 mM Tris-HCl, 2 mM MgCl2, 0.4 M NaCl, pH 7.4 from 90° C. to 4° C. at −1° C./min in a thermocycler. The platinated plasmid was dialyzed against H2O at 4° C. overnight and further purified by treatment with 30 U BsmBI at 55° C. for 1 h. The closed-circular form of plasmid was purified and concentrated by isopycnic centrifugation, followed by n-butanol extraction and ethanol precipitation. The plasmids were quantitated by a Quant-iT™ PicoGreen® dsDNA Kit from Invitrogen (Carlsbad, Calif.), and stored in −80° C. in TE buffer (10 mM Tris-HCl, 2 mM EDTA, pH 7.4).
Transfection of platinated plasmids into mammalian cells was carried out as reported previously (e.g., see ChemBioChem 2011, 12, 1115-1123). A549 and HeLa cells were plated at 2,000 cells per well in 96-well plates. NTera-2 and HT29 cells were plated at 4,000 cells per well in 96-well plates. MCF7 and U2OS cells were plated at 5,000 cells per well in 96-well plates. The cells were allowed to attach and grow for 48 h, and then washed with antibiotic-free culture media right before transfection. Transient transfection of the cells was carried out using Lipofectamine 2000. Briefly, 10 ng of site specifically platinated probes was included in each well. The experiments were performed in quadruplicate. The probes were diluted in OptiMEM, and Lipofectamine was diluted in OptiMEM. The two solutions were combined and incubated for 20 min. The transfection mixture was delivered into each well, and the cells were incubated for 2 h. The cells were washed with antibiotic-free culture media to remove the transfection mixture. A 100 μL volume of fresh, antibiotic-free media was added into each well to start the transcription assay. […]

The subject of a further assay is 5′-dGMP. To be noted: 16 equiv 5′-dGMP, 37° C., PBS pH 7.4.
Assay [4] concerns 60 different human cancer cell lines. Description: NCI-60 DTP Human Tumor Cell Line Screen. To be noted: single dose of 10 μM.

Method for 5′-dGMP: The 1-D ^1H NMR kinetic studies were performed in duplicate as a standard time-arrayed experiment using a variable delayed list. Incremented 1-D spectra were processed in exactly the same way and signals of aromatic amine ligands from platinum compounds were integrated. The relative concentrations of the platinum compound at each time point were calculated from peak integrals. […] Reactions of platinum compounds with 5′-dGMP were performed in NMR tubes containing 2 mM of the platinum compounds and 32 mM (16 equiv) of 5′-dGMP in 10 mM PBS buffer, D2O, pH*7.4 at 37° C.
Method for NTera2: as §3
Method for pGLuc plasmid: The resulting mixtures were dialyzed (molecular weight cut-off 3.5 kDa) against ddH2O overnight at 4° C. with five changes of ddH2O. The rb values (bound Pt/nucleotide) were determined by UV/Vis and atomic absorption spectroscopy.
In one embodiment, the ratio of bound platinum per plasmid was determined by measuring the Pt concentration by atomic absorption spectroscopy and the DNA concentration by UV/Vis spectroscopy.

For orientation: IC50 means the concentration that gives 50% inhibition. Turning to “cis-[Pt(NH3)2(phenanthridine)Cl]NO3 [phenanthriplatin]”, the IC50 came out at 590 ± 40 nM in the assay on human bone sarcoma U2OS (Table 3, U2OS Bone, 72-h incubation); 590 ± 40 nM in the assay with human bone sarcoma U2OS (Table 5, U2OS, 72-h incubation); 1050 ± 20 nM in the assay with human bone sarcoma U2OS (Table 14, U2OS, MTT assay); 35 ± 2 nM with NTera2; 740 ± 40 nM in assay [1] (Table 3, PC3 Prostate, 72-h incubation); 600 ± 250 nM in assay [1] (Table 11 (Example 3), PC3 Prostate, 72 h). Also, the IC50 was 860 ± 60 nM in assay [2] (Table 4, MRC5 normal lung fibroblast, 72 h incubation) and 860 ± 60 nM in assay [2] (Table 5, MRC5, 72-h incubation). Further, the Pt per plasmid in the assay with pGLuc plasmid (rf 0.0008, 16 h at 37° C.) is reported as 12.12 Pt per plasmid; with pGLuc plasmid (rf 0.0019, 16 h at 37° C.), 15.42 Pt per plasmid; in the assay on pGLuc plasmid (rf 0.0029, 16 h at 37° C.) it was 24.28 Pt per plasmid; in the assay on pGLuc plasmid (rf 0.0060, 16 h at 37° C.), 42.80 Pt per plasmid. The “rb (bound Pt/nucleotide)” value came out at 0.0015 in the assay on pGLuc plasmid (rf 0.0008, 16 h at 37° C.); 0.0019 with pGLuc plasmid (rf 0.0019, 16 h at 37° C.); 0.0030 in the assay with pGLuc plasmid (rf 0.0029, 16 h at 37° C.); 0.0053 in the assay with pGLuc plasmid (rf 0.0060, 16 h at 37° C.). Further, the “Transcription (normalized against unplatinated control)” value in assay [3] (16 hours) was found to be 26; in assay [3] (24 hours) it was 32; in assay [3] (32 hours), 36; in assay [3] (44 hours), 41. Also, in assay [3] (site-specific cis-[Pt(NH3)2(phen)]2+-dG lesion), the “transcription inhibition in live mammalian cancer cells” value is listed as “strong transcription inhibitor”. Moreover, the “pseudo-first order rate constant, reaction with 5′-dGMP” value in the assay with 5′-dGMP was 0.22 h⁻¹. In addition, the “growth inhibition of the 60 cell lines” value in assay [4] is listed as “significant growth inhibition”.
